Source: PubChem BioAssay AID248 (DTP/NCI, 2004)
Values joined by “and” are separate entries in the source; they are usually repeats but may differ in a detail not shown here. Equal entries are not always repeated. Toxic doses and inconclusive results are not listed. Rule as the data show it: active = T/C of 150% or more; inactive = T/C below 125%.

Test system: L1210 leukemia ip in BDF1 mice, survival T/C
Assay: NCI In Vivo Anticancer Drug Screen. Data for tumor model L1210 Leukemia (intraperitoneal) in B6D2F1 (BDF1) mice
Conditions: endpoint: mean survival time, higher = longer survival
Procedure, shortened: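 Tumor cells were implanted, animals were treated, and survival was followed. The result divides the treated measurement by the vehicle-control measurement.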

[1] = dose: 50.0 mg/kg/injection, schedule: Q04DX003 (ip), vehicle: Klucel (hydroxypropylcellulose) (HPC)
[2] = dose: 100.0 mg/kg/injection, schedule: Q01DX001 (ip), vehicle: saline
[3] = dose: 100.0 mg/kg/injection, schedule: Q01DX009 (ip), vehicle: Klucel (hydroxypropylcellulose) (HPC)
[4] = dose: 100.0 mg/kg/injection, schedule: Q04DX003 (ip), vehicle: Klucel (hydroxypropylcellulose) (HPC)
[5] = dose: 200.0 mg/kg/injection, schedule: Q01DX001 (ip), vehicle: saline
[6] = dose: 200.0 mg/kg/injection, schedule: Q01DX009 (ip), vehicle: Klucel (hydroxypropylcellulose) (HPC)
[7] = dose: 200.0 mg/kg/injection, schedule: Q04DX003 (ip), vehicle: Klucel (hydroxypropylcellulose) (HPC)
[8] = dose: 400.0 mg/kg/injection, schedule: Q01DX001 (ip), vehicle: saline
[9] = dose: 100.0 mg/kg/injection, schedule: Q01DX009 (ip), vehicle: saline
[10] = dose: 200.0 mg/kg/injection, schedule: Q01DX009 (ip), vehicle: saline
[11] = dose: 400.0 mg/kg/injection, schedule: Q01DX009 (ip), vehicle: saline
[12] = dose: 50.0 mg/kg/injection, schedule: Q01DX001 (ip), vehicle: saline
[13] = dose: 100.0 mg/kg/injection, schedule: Q01DX001 (ip), vehicle: carboxymethylcellulose (CMC)
[14] = dose: 200.0 mg/kg/injection, schedule: Q01DX001 (ip), vehicle: carboxymethylcellulose (CMC)
[15] = dose: 400.0 mg/kg/injection, schedule: Q01DX001 (ip), vehicle: carboxymethylcellulose (CMC)
[16] = dose: 50.0 mg/kg/injection, schedule: Q01DX009 (ip), vehicle: Klucel (hydroxypropylcellulose) (HPC)

Measured: T/C

O=C(/C=C(\C(=O)c1ccccc1)c1ccccc1)c1ccccc1
inactive: [1] 95 % of control | [2] 92 % of control | [3] 95 % of control | [4] 101 % of control | dose: 200.0 mg/kg/injection, schedule: Q01DX001 (ip), vehicle: saline with Tween-80 90 % of control | [5] 95 % of control | [6] 102 % of control | [7] 102 % of control | dose: 400.0 mg/kg/injection, schedule: Q01DX009 (ip), vehicle: Klucel (hydroxypropylcellulose) (HPC) 98 % of control

CC(=O)C12OC1CC1C3CCC4=CC(=O)CCC4(C)C3CC(=O)C12C (stereo unspecified)
inactive: dose: 75.0 mg/kg/injection, schedule: Q01DX009 (ip), vehicle: carboxymethylcellulose (CMC) 94 % of control | dose: 150.0 mg/kg/injection, schedule: Q01DX009 (ip), vehicle: carboxymethylcellulose (CMC) 107 % of control | dose: 300.0 mg/kg/injection, schedule: Q01DX009 (ip), vehicle: carboxymethylcellulose (CMC) 105 % of control

CCCCN=C(N)CCl
inactive: dose: 25.0 mg/kg/injection, schedule: Q04DX002 (ip), vehicle: saline 106 % of control | dose: 50.0 mg/kg/injection, schedule: Q04DX002 (ip), vehicle: saline 95 % of control | dose: 100.0 mg/kg/injection, schedule: Q04DX002 (ip), vehicle: saline 124 % of control

O=S(=O)(n1ccnc1)C(F)(F)F
inactive: dose: 5.0 mg/kg/injection, schedule: Q01DX001 (ip), vehicle: saline 102 % of control | dose: 10.0 mg/kg/injection, schedule: Q01DX001 (ip), vehicle: saline 98 % of control | dose: 20.0 mg/kg/injection, schedule: Q01DX001 (ip), vehicle: saline 102 % of control | dose: 40.0 mg/kg/injection, schedule: Q01DX001 (ip), vehicle: saline 102 % of control

CC(C)(O)OC1COC(C2CS2)C1O (stereo unspecified)
inactive: dose: 100.0 mg/kg/injection, schedule: Q04DX002 (ip), vehicle: Klucel (hydroxypropylcellulose) (HPC) 94 % of control | dose: 200.0 mg/kg/injection, schedule: Q04DX002 (ip), vehicle: Klucel (hydroxypropylcellulose) (HPC) 98 % of control | dose: 400.0 mg/kg/injection, schedule: Q04DX002 (ip), vehicle: Klucel (hydroxypropylcellulose) (HPC) 102 % of control

CCCCCCCCCCCCC1C2CCCCC2C2CCCCC12 (stereo unspecified)
inactive: [2] 92 % of control | [5] 92 % of control | [8] 92 % of control

CCn1c(COc2cc(C)cc(C)c2)c(COC(=O)c2cccc(Cl)c2)c2ccccc21
inactive: dose: 50.0 mg/kg/injection, schedule: Q01DX009 (ip), vehicle: saline with Tween-80 96 % of control | dose: 100.0 mg/kg/injection, schedule: Q01DX009 (ip), vehicle: saline with Tween-80 86 % of control | dose: 200.0 mg/kg/injection, schedule: Q01DX009 (ip), vehicle: saline with Tween-80 91 % of control

S=C(C#Cc1ccccc1)Nc1ccccc1
inactive: dose: 100.0 mg/kg/injection, schedule: Q04DX002 (ip), vehicle: saline with Tween-80 93 % of control | dose: 200.0 mg/kg/injection, schedule: Q04DX002 (ip), vehicle: saline with Tween-80 86 % of control

CCCCCCCCC(O)CCC (stereo unspecified)
inactive: [9] 102 % of control | [10] 105 % of control | [11] 102 % of control

COC(=O)C(CSSCC(NC(=O)c1ccccc1)C(=O)OC)NC(=O)c1ccccc1 (stereo unspecified)
inactive: [12] 98 % of control | [2] 114 % of control | [5] 97 % of control

CCCCn1cnc2c(=O)[nH]cnc21
inactive: dose: 66.12 mg/kg/injection, schedule: Q01DX Z (ip), vehicle: carboxymethylcellulose (CMC) 93 % of control | dose: 132.25 mg/kg/injection, schedule: Q01DX Z (ip), vehicle: carboxymethylcellulose (CMC) 94 % of control | dose: 132.25 mg/kg/injection, schedule: Q01DX Z (oral), vehicle: carboxymethylcellulose (CMC) 100 % of control | dose: 264.5 mg/kg/injection, schedule: Q01DX Z (ip), vehicle: carboxymethylcellulose (CMC) 90 % of control | dose: 264.5 mg/kg/injection, schedule: Q01DX Z (oral), vehicle: carboxymethylcellulose (CMC) 96 % of control | dose: 529.0 mg/kg/injection, schedule: Q01DX Z (oral), vehicle: carboxymethylcellulose (CMC) 94 % of control

N#C/C(=C\C=C\c1ccccc1)c1cccc(Cl)c1
inactive: dose: 87.5 mg/kg/injection, schedule: Q01DX009 (ip), vehicle: Klucel (hydroxypropylcellulose) (HPC) 89 % of control | dose: 175.0 mg/kg/injection, schedule: Q01DX009 (ip), vehicle: Klucel (hydroxypropylcellulose) (HPC) 92 % of control | dose: 350.0 mg/kg/injection, schedule: Q01DX009 (ip), vehicle: Klucel (hydroxypropylcellulose) (HPC) 101 % of control

COc1ccc(NC(=O)Nc2nccs2)c(OC)c1
inactive: [9] 104 % of control | [10] 102 % of control | [11] 105 % of control

O=C(Nc1cc([N+](=O)[O-])cc([N+](=O)[O-])c1O)C(F)(F)F
inactive: dose: 25.0 mg/kg/injection, schedule: Q01DX001 (ip), vehicle: Klucel (hydroxypropylcellulose) (HPC) 102 % of control | dose: 50.0 mg/kg/injection, schedule: Q01DX001 (ip), vehicle: Klucel (hydroxypropylcellulose) (HPC) 96 % of control | dose: 100.0 mg/kg/injection, schedule: Q01DX001 (ip), vehicle: Klucel (hydroxypropylcellulose) (HPC) 100 % of control and 120 % of control | dose: 200.0 mg/kg/injection, schedule: Q01DX001 (ip), vehicle: Klucel (hydroxypropylcellulose) (HPC) 98 % of control

OCC(Cc1ccc(Cl)cc1)N1CCCCC1 (stereo unspecified)
inactive: [13] 96 % of control | [14] 100 % of control | [15] 89 % of control

COC(OC)c1cc(=O)[nH]c(N)n1
inactive: [12] 103 % of control | [16] 109 % of control | [1] 97 % of control | [2] 101 % of control | [3] 100 % of control | [4] 93 % of control | [5] 108 % of control | [6] 104 % of control | [7] 96 % of control

CC(C)(C)C(=O)OCn1cnc2c(=N)n(O)cnc21
inactive: [16] 103 % of control | [3] 100 % of control | [4] 97 % of control | [6] 101 % of control | [7] 108 % of control

OCC12C=CC(CC1)CC2
inactive: dose: 75.0 mg/kg/injection, schedule: Q04DX002 (ip), vehicle: gum acacia 92 % of control | dose: 150.0 mg/kg/injection, schedule: Q04DX002 (ip), vehicle: gum acacia 100 % of control | dose: 300.0 mg/kg/injection, schedule: Q04DX002 (ip), vehicle: gum acacia 92 % of control

S=P(NCCCCCCCNP(=S)(N1CC1)N1CC1)(N1CC1)N1CC1
inactive: [13] 106 % of control | [14] 98 % of control | [15] 104 % of control

CCCCCCCCCCCCCCCCCC(S(=O)(=O)CC)S(=O)(=O)CC
inactive: [4] 93 % of control | [7] 93 % of control | dose: 400.0 mg/kg/injection, schedule: Q04DX003 (ip), vehicle: Klucel (hydroxypropylcellulose) (HPC) 90 % of control

O=C(Nc1ccc(N=Nc2ccccc2)cc1)C(F)(F)F
inactive: [2] 102 % of control | [5] 109 % of control | [8] 93 % of control
